Experiment in all cases: NCI-60 cell line screen, 48 h
Test [1] relates to SF-268 CNS.
Test [2] deals with KM12 colon.
Test [3] relates to UACC-62 melanoma.
Test [4] concerns PC-3 prostate.
The subject of test [5] is UO-31 renal.
Test [6] deals with SR leukemia.
For test [7], the system named is M14 melanoma.
For test [8], the system named is EKVX NSCLC.
Test [9] concerns SNB-19 CNS.
Test [10] concerns NCI-H226 lung.

Molecules are shown by their SMILES. Values joined by “and” are separate entries in the source; they are usually repeats but may differ in a detail not shown here. Identical values can stand only once.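 Cultured in 96-well plates, cells were exposed to test compound for 48 hours across five concentrations. GI50: concentration for 50% inhibition of growth. TGI marks complete inhibition of growth.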 Some results are limits rather than exact numbers.

For `CN1C(=O)c2ccccc2NC(=O)C12O[C@@H]2c1cccc(O)c1` (stereo partly drawn), the TGI in test [1], in test [2], in [3], in test [4], in test [5] and in [6] was above 100 µM throughout. The TGI in [7], in test [8] and in test [9] was above 100 µM in each case.

Take `O=C1OC(c2ccco2)=N/C1=C\c1cccc([N+](=O)[O-])c1`: the TGI in [1], in test [2], in test [3], in test [4], in test [6] and in test [7] was above 100 µM in each case. The TGI in test [10], in [8] and in test [9] was above 100 µM in each case.

On to `Cc1ccc2c(c1)CN(C(=O)CCC(=O)OCc1ccccc1)c1ccc(C)cc1CN2C(=O)CCC(=O)OCc1ccccc1`, for which the TGI in test [1], in test [2], in test [3], in [4], in test [6] and in test [7] was above 100 µM throughout. Further, the TGI in [10], in [8] and in [9] was above 100 µM each time.

`CNc1nc(N)c(N=O)c(Nc2ccc(Br)cc2)n1`: the TGI in test [1], in [2], in test [3], in test [4], in test [5] and in test [6] was above 100 µM in each case. In addition, the TGI in test [8] and in [9] was above 100 µM each time.

For the compound `CON(C)C(=O)N1N=C(c2cc(F)ccc2F)SC1(CCCN)c1ccccc1` (stereo not drawn), the GI50 is 0.0217 µM and < 0.01 µM in test [1]; 0.028 µM and < 0.01 µM in test [2]; 0.0618 µM and < 0.01 µM in test [3]; 0.0179 µM and < 0.01 µM in test [4]; 3.37 µM and 2.21 µM in test [5]; below 0.01 µM in test [6]. Besides, the GI50 in test [7] was below 0.01 µM; in test [10], 12 µM and 12.5 µM; in [9], 0.109 µM and < 0.0132 µM. Further, the TGI is 17.3 µM and 16 µM in test [1]; 13.5 µM and 12.9 µM in test [2]; 18.8 µM and 16.2 µM in [3]; 15 µM and 14.2 µM in test [4]; 21.8 µM and 20.5 µM in test [5]; 12.4 µM and 12.6 µM in [6]. The TGI is 11.2 µM and 4.38 µM in [7]; 27.3 µM and 28.3 µM in test [10]; 23.2 µM and 23.7 µM in [9].

Turning to `O=C(/C(=C/c1cccc([N+](=O)[O-])c1)c1ccccc1)c1ccccc1`, the GI50 in test [1] is 3.9 µM; in test [2], 3.7 µM; in test [3], 2.8 µM; in test [4] it was 4.54 µM; in [5], 2.21 µM; in test [6] it was 2.7 µM. In addition, the figures for the GI50 in test [7], in test [10] and in test [9] were 3.45 µM, 3.08 µM and 5.15 µM, respectively. Moreover, the TGI in test [1] is 15.5 µM; in test [2], 13.1 µM; in test [3], 12.1 µM; in test [4] it was 36.2 µM; in [5] it was 5.85 µM; in [6], above 100 µM. In addition, the figures for the TGI in [7], in test [10] and in test [9] were 18.9 µM, 11.5 µM and 19.7 µM, respectively.

Regarding `CCCS(=O)(=O)/C(=C(\c1ccc(Br)cc1)S(=O)(=O)CCC)c1ccc(Br)cc1`, the TGI in [1], in test [2], in test [3], in [5], in test [6] and in [7] was above 10 µM each time. In addition, the TGI in test [10], in [8] and in test [9] was above 10 µM throughout.

As to `CC(=O)N1C/C(=C\c2ccc(N(C)C)cc2)C(=O)/C(=C/c2ccc(N(C)C)cc2)C1`, the TGI in [1], in test [2], in [3], in test [5], in [6] and in [7] was above 100 µM each time. The TGI in [10] and in test [9] was above 100 µM in each case.

Regarding `CC(C)c1cc2c(O)c(c1)Cc1cc(C(C)C)cc(c1O)Cc1cc(C(C)C)cc(c1O)Cc1cc(C(C)C)cc(c1O)C2`, the TGI in test [1], in test [2], in [3], in test [5], in [6] and in test [10] was above 100 µM throughout. The TGI in test [8] and in test [9] was above 100 µM throughout.

On to `N#CCc1ccc(C(C#N)/C(CCCC(=O)Nc2cccc([N+](=O)[O-])c2)=N/NC(N)=S)cc1` (stereo not drawn), for which the TGI in [1], in test [2], in [3], in [5], in test [6] and in [7] was above 100 µM throughout. The TGI in test [10], in test [8] and in test [9] was above 100 µM in each case.

In the case of `Fc1ccc(C2SCc3nc4ccccc4n32)cc1Cl` (stereo not drawn), the TGI in [1] is above 100 µM; in test [2], 39.8 µM; in [3] it was 25.6 µM; in test [5] it was 43.5 µM; in test [6], above 100 µM; in [10], 52 µM. Moreover, the TGI in test [8] was 92.8 µM; in test [9] it was above 100 µM.

Regarding `COC(=O)c1cc(C)c(C)c2c1NC(=O)CNC2=O`, the TGI in test [2] was above 100 µM; in [3], above 100 µM; in test [5] it was 91.6 µM; in [6] it was above 100 µM; in test [7], above 100 µM; in [8], above 100 µM.

On to `C/C(=N\Nc1ccc(Cl)cn1)c1ccccn1`, for which the GI50 is 0.213 µM in test [1]; 0.41 µM in test [2]; 0.172 µM in [3]; 0.0464 µM in [4]; 0.0344 µM in test [5]; 0.0556 µM in test [6]. Moreover, the GI50 is 0.0939 µM in [10], 0.0516 µM in [8] and 0.411 µM in test [9]. The TGI in [1] is above 73.2 µM; in [2], 18.1 µM; in test [3], above 100 µM; in [4], above 100 µM; in test [5], 1.86 µM; in [6] it was above 40.9 µM. In addition, the TGI in [10] was 2.65 µM; in [8] it was above 83.7 µM; in test [9], above 100 µM.

Take `COc1ncc(-c2ccc3ncnc(Nc4cccc(Cl)c4)c3c2)cc1NS(=O)(=O)CCN1CCOCC1`: the GI50 in [1] was 0.382 µM; in [2] it was 1.81 µM; in [4], 0.326 µM; in [6], 0.653 µM; in [7] it was 0.755 µM; in test [10], 0.659 µM. Also, the GI50 in test [9] was 0.945 µM. The TGI in [1], in test [2], in test [4], in test [6], in test [7] and in [10] was above 100 µM throughout. Besides, the TGI in [9] was above 100 µM.

Consider `COc1ccc2nc3cc(Cl)ccc3c(NCCN)c2c1`, for which the GI50 in test [2] was 1.67 µM; in test [4] it was 1.72 µM; in test [5] it was 1.5 µM; in test [6], 1.44 µM; in test [7], 1.82 µM; in [10] it was 4.75 µM. Besides, the TGI in test [2] was 3.46 µM; in [4], 3.38 µM; in test [5], 2.95 µM; in test [6], 5.4 µM; in test [7], 3.44 µM; in [10], above 100 µM.

For the compound `COC(C(O)c1ccc2c(c1)OCO2)P(=O)(c1ccccc1)c1ccccc1` (stereo not drawn), the TGI in [1], in [2], in test [3], in [5], in test [6] and in test [7] was above 100 µM throughout. In addition, the TGI in test [10], in test [8] and in test [9] was above 100 µM in each case.

Take `c1cc[c]([Pb]([c]2ccccc2)[c]2ccccc2)cc1`: the GI50 in [1] is 7.34 µM; in test [2] it was 23.4 µM; in test [3] it was 6.1 µM; in test [5] it was 26.8 µM; in test [6], 14.4 µM; in test [7], 14.2 µM. In addition, the GI50 in test [8] is 25.2 µM; in test [9] it was 16.5 µM. Also, the TGI in [1] was 50.7 µM; in test [2] it was above 100 µM; in [3], 19.8 µM; in [5], 88.6 µM; in test [6], 74.6 µM; in test [7], 47.4 µM. Also, the TGI in [8] amounted to 76.8 µM; in [9], 38.7 µM.

Take `FC(F)(F)c1nc(-c2ccccc2)oc1Sc1nnc(Sc2oc(-c3ccccc3)nc2C(F)(F)F)s1`: the TGI was above 100 µM in [1]; above 100 µM in test [2]; above 65.8 µM in test [3]; above 100 µM in test [5]; 41 µM in test [6]; 28 µM in test [7]. Besides, the TGI in [8] was above 80.7 µM; in test [9], above 100 µM.

Turning to `O=C(/C=C/c1c(O)ccc2ccccc12)c1ccccc1`, the TGI in [1], in test [2], in test [3], in test [5], in [6] and in test [7] was above 100 µM in each case. In addition, the TGI in test [10], in [8] and in test [9] was above 100 µM throughout.

Turning to `Cc1[nH]c2ccccc2c1C1Cc2ccccc2N1C(=O)/C(Cl)=C/c1ccccc1` (stereo not drawn), the TGI in [1], in test [2], in test [3], in [5], in [6] and in test [7] was above 100 µM in each case. The TGI in [10], in [8] and in test [9] was above 100 µM throughout.

Turning to `CC(C)(C)c1ccc(O)c(CN(Cc2cc(C(C)(C)C)ccc2O)c2ccccc2)c1`, the TGI in [1] came to 38.3 µM; in test [2], 66.7 µM; in [3], 28.4 µM; in test [4], 42.1 µM; in test [5], 29.2 µM; in [6], 38.1 µM. The TGI in test [7] was 28.2 µM; in test [8], 37.1 µM; in test [9] it was 31.5 µM.

As to `N#C/C(=C\c1cc2ccccc2c2ccccc12)c1ccccc1`, the TGI was above 53.9 µM in test [1]; above 52.3 µM in test [2]; 28.9 µM in test [3]; 57.7 µM in [5]; 7.91 µM in test [6]; 30 µM in test [7]. Moreover, the TGI in [10] was above 100 µM; in test [8] it was 75.2 µM; in test [9], 45.4 µM.

As for `COc1ccc(-c2nnc(COc3ccc(NC(=O)Nc4ccc(Cl)c(C(F)(F)F)c4)cc3F)o2)cc1`, the GI50 in [1] is 6.01 µM; in test [2], 2.31 µM; in test [3] it was 3.12 µM; in test [4], 1.84 µM; in test [5], 2.88 µM; in [6], 1.39 µM. The GI50 in test [7] was 3.13 µM; in [10], 4.93 µM; in test [9], 4.02 µM. For the same compound, the TGI in test [1] amounted to 36.1 µM; in [2], 11 µM; in [3], 16.4 µM; in test [4] it was 12.7 µM; in [5] it was 16.6 µM; in test [6] it was 4.09 µM. The results for the TGI in test [7], in [10] and in test [9] were 16.5 µM, 37.3 µM and 24.2 µM, respectively.

In the case of `COc1ccc(OC)c(C(=O)c2oc3ccc(Br)cc3c2N)c1`, the GI50 in [1] was 0.725 µM; in test [2], 0.348 µM; in [3], 0.432 µM; in test [4], 0.58 µM; in [5], 0.707 µM; in test [6] it was 0.193 µM. In addition, the results for the GI50 in test [7], in test [10] and in test [9] were 0.303 µM, 2.38 µM and 0.901 µM, respectively. Further, the TGI in test [1] is above 59.5 µM; in [2], 18.4 µM; in test [3], 14.3 µM; in test [4] it was above 51 µM; in test [5], above 69.3 µM; in test [6] it was 19.1 µM. Besides, the TGI was 16.3 µM in test [7], above 100 µM in [10] and above 100 µM in test [9].

(Values after PubChem BioAssay (NCI).)
